Measurements: patent US20120100609A1, “N-LINKED GLYCAN BIOSYNTHESIS MODULATORS” (priority 2009, published 2012)

What follows are molecules tested on N-linked glycans of CHO cells (assay: N-glycan profiling of treated CHO cells by normal phase HPLC (PNGaseF release, 2AB label)). Conditions: CHO cells treated with compound, doses in uM.
Type: cell-based, Chinese Hamster
Experimental: N-linked glycans were purified from CHO cell cultures and different N-linked glycan structural peaks were separated by normal phase HPLC. For the analyses, cultured CHO cells were treated with and without the test compounds as described above and then harvested for N-glycan profiling. The spent medium was decanted and the cells were rinsed 3 times with PBS and detached with 5 mM EDTA/PBS. N-glycans were released from cells using PNGaseF (Prozyme, Cat# GKE-5006) as described by the manufacture. Released glycans were labeled with […] (2AB) (Sigma, Cat# A89804) as described by the manufacture. Non-incorporated 2AB was removed using a Discovery DPA-6S column. Briefly, the column was pre-equilibrated 2× with 1 ml 97% ACN. Samples were loaded by adding 1 ml 97% acetonitrile (ACN) to the reaction mix. The column was washed 4× with 1 ml 97% CAN. 2AB-labeled N-glycans were then eluted 2× with 0.6 ml water, dried in a vacuum centrifuge, resuspended and then analyzed by normal phase HPLC(NP-HPLC). Analogous experiments were run with Castanospermine for comparison. The results are illustrated in FIGS. 23-30. Purified 2AB-N-glycans were separated (NP-HPLC) on a 4.6×250 mm TSK Gel-Amide-80 column (Tosoh Bioscience). A gradient was run from 70% A to 50% A over 40 min at a flow rate of 1.2 ml/min (Solvent A: Acetonitrile, Solvent B: 50 mM ammonium formate pH4.4). Glucose units were determined based on 2AB-labeled glucose oligomer ladder (Prozyme). 2AB-labeled N-glycan standards (Prozyme) were run and assigned glucose units.
For `COc1ccc(CN/C=C2\C(=O)N(c3nc4ccccc4s3)N=C2c2ccccc2)cc1` [compound 11], the “specific N-linked glycan peaks of the HPLC profile (peak areas as % of the untreated Cntr peak area)” value was “increases and decreases of specific peaks”. `O[C@H]1[C@H](O)[C@@H](O)CN2CC[C@H](O)[C@H]12` [Castanospermine, reference compound] was tested, and the “specific N-linked glycan peaks of the HPLC profile (peak areas as % of the untreated Cntr peak area)” value was “N-glycan Profile Changes”. For `CCOc1cc(/C=C(\C#N)c2n[nH]c(N)c2C#N)ccc1O` [compound 12, (Z)-5-amino-3-(1-cyano-2-(3-ethoxy-4-hydroxyphenyl)vinyl)-1H-pyrazole-4-carbonitrile], the “specific N-linked glycan peaks of the HPLC profile (peak areas as % of the untreated Cntr peak area)” value was “increases and decreases of specific peaks”. With `Cc1ccc(NC(=O)c2c(NC(=O)c3cccnc3)sc3c2CCC3)cc1` [compound 10, N-(3-(p-tolylcarbamoyl)-5,6-dihydro-4H-cyclopenta[b]thiophen-2-yl)nicotinamide] the “specific N-linked glycan peaks of the HPLC profile (peak areas as % of the untreated Cntr peak area)” value was “increases and decreases of specific peaks”.
